Laboratory results as given in article PMC5218480 (PLoS ONE, 2017).

Test system: MV-4-11 cells
Assay: Gene expression microarray analysis (Affymetrix PrimeView) and GSEA
Assay type: cell-based, human
Set-up: RFU PODN (11730768_x_at) / Fold change /veh PODN (11730768_x_at) / RFU LINC00158 (11744669_a_at) / Fold change /veh LINC00158 (11744669_a_at) / RFU DUSP10 (11751237_a_at) / Fold change /veh DUSP10 (11751237_a_at) / RFU ID3 (11757404_x_at) / Fold change /veh ID3 (11757404_x_at) / RFU PLEKHG5 (11737974_s_at) / Fold change /veh PLEKHG5 (11737974_s_at) / RFU LRRC4B (11730491_at) / Fold change /veh LRRC4B (11730491_at) / RFU GIMAP4 (11747438_a_at) / Fold change /veh GIMAP4 (11747438_a_at) / RFU KRT8 (11758183_x_at) / Fold change /veh KRT8 (11758183_x_at) / RFU CNN1 (11734310_a_at) / Fold change /veh CNN1 (11734310_a_at) / RFU VPS37D (11726825_at) / Fold change /veh VPS37D (11726825_at) / RFU C10orf10 (11716522_x_at) / Fold change /veh C10orf10 (11716522_x_at) / RFU KIR2DL2 /// KIR2DL4 /// KIR2DL5A /// KIR2DL5B /// KIR2DS1 /// KIR2DS2 /// KIR2DS3 /// KIR2DS4 /// KIR3DL3 /// KIR3DL3 /// KIR3DS1 (11738374_at) / Fold change /veh KIR2DL2 /// KIR2DL4 /// KIR2DL5A /// KIR2DL5B /// KIR2DS1 /// KIR2DS2 /// KIR2DS3 /// KIR2DS4 /// KIR3DL3 /// KIR3DL3 /// KIR3DS1 (11738374_at) / RFU C1QL1 (11718748_at) / Fold change /veh C1QL1 (11718748_at) / RFU TMPRSS4 (11747572_a_at) / Fold change /veh TMPRSS4 (11747572_a_at) / RFU HAMP (11756126_x_at) / Fold change /veh HAMP (11756126_x_at) / RFU RNFT2 (11725882_a_at) / Fold change /veh RNFT2 (11725882_a_at) / RFU NR4A2 (11747474_a_at) / Fold change /veh NR4A2 (11747474_a_at) / RFU ABCC12 (11746883_a_at) / Fold change /veh ABCC12 (11746883_a_at) / RFU TMEM136 (11760407_x_at) / Fold change /veh TMEM136 (11760407_x_at) / RFU CLDN22 /// WWC2 (11732394_at) / Fold change /veh CLDN22 /// WWC2 (11732394_at) / RFU HLA-DPB1 (11760878_x_at) / Fold change /veh HLA-DPB1 (11760878_x_at) / RFU SPINT1 (11716480_a_at) / Fold change /veh SPINT1 (11716480_a_at) / RFU GAP43 (11754022_s_at) / Fold change /veh GAP43 (11754022_s_at) / RFU A4GNT (11735810_at) / Fold change /veh A4GNT (11735810_at) / RFU PRB3 (11715151_x_at) / Fold change /veh PRB3 (11715151_x_at) / RFU TUBB4B (11761932_at) / Fold change /veh TUBB4B (11761932_at) / RFU CAPN14 (11732068_a_at) / Fold change /veh CAPN14 (11732068_a_at) / RFU TMCC2 (11721928_a_at) / Fold change /veh TMCC2 (11721928_a_at) / RFU IRGQ (11745062_a_at) / Fold change /veh IRGQ (11745062_a_at) / RFU FAM174B (11720279_a_at) / Fold change /veh FAM174B (11720279_a_at) / RFU TMPRSS4 (11748680_a_at) / Fold change /veh TMPRSS4 (11748680_a_at) / RFU FAM212B (11763350_a_at) / Fold change /veh FAM212B (11763350_a_at) / RFU PLEKHG5 (11743358_a_at) / Fold change /veh PLEKHG5 (11743358_a_at) / RFU ZSCAN30 (11745921_a_at) / Fold change /veh ZSCAN30 (11745921_a_at) / RFU CMKLR1 (11741424_a_at) / Fold change /veh CMKLR1 (11741424_a_at) / RFU LOC101060620 /// MAPK8IP1 (11723275_at) / Fold change /veh LOC101060620 /// MAPK8IP1 (11723275_at) / RFU SPTSSB (11747773_x_at) / Fold change /veh SPTSSB (11747773_x_at) / RFU PRSS12 (11739890_at) / Fold change /veh PRSS12 (11739890_at) / RFU BIN1 (11741810_x_at) / Fold change /veh BIN1 (11741810_x_at) / RFU WNT11 (11732464_a_at) / Fold change /veh WNT11 (11732464_a_at) / RFU C10orf10 (11716521_a_at) / Fold change /veh C10orf10 (11716521_a_at) / RFU C5orf56 (11738089_at) / Fold change /veh C5orf56 (11738089_at) / RFU CYB561 (11721691_x_at) / Fold change /veh CYB561 (11721691_x_at) / RFU ANKRD19P (11752326_a_at) / Fold change /veh ANKRD19P (11752326_a_at) / RFU OR2T12 /// OR2T33 /// OR2T8 (11738714_s_at) / Fold change /veh OR2T12 /// OR2T33 /// OR2T8 (11738714_s_at) / RFU VCAN (11748164_a_at) / Fold change /veh VCAN (11748164_a_at) / RFU JSRP1 (11732532_at) / Fold change /veh JSRP1 (11732532_at) / RFU KRTAP10-11 (11738290_x_at) / Fold change /veh KRTAP10-11 (11738290_x_at) / RFU MYO3A (11730013_a_at) / Fold change /veh MYO3A (11730013_a_at) / RFU EBF3 (11725865_a_at) / Fold change /veh EBF3 (11725865_a_at) / RFU CAMK2N1 (11719241_x_at) / Fold change /veh CAMK2N1 (11719241_x_at) / RFU C5orf56 (11738088_a_at) / Fold change /veh C5orf56 (11738088_a_at) / RFU OLFML3 (11715873_a_at) / Fold change /veh OLFML3 (11715873_a_at) / RFU LOC100653217 /// NTM (11731650_a_at) / Fold change /veh LOC100653217 /// NTM (11731650_a_at) / RFU MAPK11 (11762145_a_at) / Fold change /veh MAPK11 (11762145_a_at) / RFU FIZ1 (11724087_x_at) / Fold change /veh FIZ1 (11724087_x_at) / RFU OASL (11726364_x_at) / Fold change /veh OASL (11726364_x_at) / RFU SOX15 (11748057_x_at) / Fold change /veh SOX15 (11748057_x_at) / RFU CD79A (11719716_a_at) / Fold change /veh CD79A (11719716_a_at) / RFU HIST1H1D (11736915_at) / Fold change /veh HIST1H1D (11736915_at) / RFU CASKIN2 (11723855_a_at) / Fold change /veh CASKIN2 (11723855_a_at) / RFU LOC730098 (11760151_x_at) / Fold change /veh LOC730098 (11760151_x_at) / RFU OR4N2 (11742367_at) / Fold change /veh OR4N2 (11742367_at) / RFU PRRT2 (11749266_a_at) / Fold change /veh PRRT2 (11749266_a_at) / RFU SNX32 (11753110_a_at) / Fold change /veh SNX32 (11753110_a_at) / RFU CDHR5 (11726645_a_at) / Fold change /veh CDHR5 (11726645_a_at) / RFU RCAN1 (11760418_a_at) / Fold change /veh RCAN1 (11760418_a_at) / RFU FAM167A (11723789_a_at) / Fold change /veh FAM167A (11723789_a_at) / RFU FAM26E (11764081_at) / Fold change /veh FAM26E (11764081_at) / RFU ISYNA1 (11749810_s_at) / Fold change /veh ISYNA1 (11749810_s_at) / RFU ACY1 (11761880_at) / Fold change /veh ACY1 (11761880_at) / RFU 11764098_at / Fold change /veh 11764098_at / RFU SAMD14 (11745864_x_at) / Fold change /veh SAMD14 (11745864_x_at) / RFU NPB (11741838_a_at) / Fold change /veh NPB (11741838_a_at) / RFU TMPRSS6 (11731388_a_at) / Fold change /veh TMPRSS6 (11731388_a_at) / RFU KRTAP10-2 (11738614_at) / Fold change /veh KRTAP10-2 (11738614_at) / RFU ARHGAP8 /// PRR5-ARHGAP8 (11727945_x_at) / Fold change /veh ARHGAP8 /// PRR5-ARHGAP8 (11727945_x_at) / RFU KRTAP5-7 /// NADSYN1 (11734609_at) / Fold change /veh KRTAP5-7 /// NADSYN1 (11734609_at) / RFU RASL12 (11751679_a_at) / Fold change /veh RASL12 (11751679_a_at) / RFU CDKN2B (11736163_a_at) / Fold change /veh CDKN2B (11736163_a_at) / RFU PRF1 (11729649_at) / Fold change /veh PRF1 (11729649_at) / RFU, ZNF638 /// ZNF638-IT1 / Fold change vs veh, ZNF638 /// ZNF638-IT1 / RFU, PANK3 / Fold change vs veh, PANK3 / RFU, SH3YL1 / Fold change vs veh, SH3YL1 / RFU, ZEB2 / Fold change vs veh, ZEB2 / RFU, NRIP1 / Fold change vs veh, NRIP1 / RFU, PTTG1IP / Fold change vs veh, PTTG1IP / RFU, CAPN2 / Fold change vs veh, CAPN2 / RFU, MED14 / Fold change vs veh, MED14 / RFU, SNORA58 / Fold change vs veh, SNORA58 / RFU, C1orf63 / Fold change vs veh, C1orf63 / RFU, LRRFIP1 / Fold change vs veh, LRRFIP1 / RFU, NDUFAF7 / Fold change vs veh, NDUFAF7 / RFU, SLC12A2 / Fold change vs veh, SLC12A2 / RFU, IBTK / Fold change vs veh, IBTK / RFU, ESF1 / Fold change vs veh, ESF1 / Fold change vs veh, TMEM50B / RFU, TAOK1 / Fold change vs veh, TAOK1 / RFU, ACBD3 / Fold change vs veh, ACBD3 / RFU, TMA16 / Fold change vs veh, TMA16 / RFU, RWDD3 / Fold change vs veh, RWDD3 / RFU, BCAT1 / Fold change vs veh, BCAT1 / RFU, EDEM3 / Fold change vs veh, EDEM3 / RFU, TMEM33 / Fold change vs veh, TMEM33 / RFU, WDR75 / Fold change vs veh, WDR75 / RFU, AHCTF1 / Fold change vs veh, AHCTF1 / RFU, TFRC / Fold change vs veh, TFRC / RFU, ZDHHC17 / Fold change vs veh, ZDHHC17 / RFU, NOM1 / Fold change vs veh, NOM1 / RFU, ARL8B / Fold change vs veh, ARL8B / RFU, ZBTB11 / Fold change vs veh, ZBTB11 / RFU, TAMM41 / Fold change vs veh, TAMM41 / RFU, KIAA1704 /// LOC100996395 / Fold change vs veh, KIAA1704 /// LOC100996395 / RFU, ING1 / Fold change vs veh, ING1 / RFU, TRMT61B / Fold change vs veh, TRMT61B / RFU, FUBP3 / Fold change vs veh, FUBP3 / RFU, TP53 / Fold change vs veh, TP53 / RFU, TNKS2 / Fold change vs veh, TNKS2 / RFU, ZFP14 / Fold change vs veh, ZFP14 / RFU, ACTR2 / Fold change vs veh, ACTR2 / RFU, PPP3R1 / Fold change vs veh, PPP3R1 / RFU, PIK3R1 / Fold change vs veh, PIK3R1 / RFU, HNRNPA1 / Fold change vs veh, HNRNPA1 / RFU, RNF170 / Fold change vs veh, RNF170 / RFU, ZNF28 / Fold change vs veh, ZNF28 / RFU, RNGTT / Fold change vs veh, RNGTT / RFU, OGT / Fold change vs veh, OGT / RFU, BRD1 / Fold change vs veh, BRD1 / RFU, MARS / Fold change vs veh, MARS / RFU, ZNF655 / Fold change vs veh, ZNF655 / RFU, FAHD1 / Fold change vs veh, FAHD1 / RFU, BDP1 / Fold change vs veh, BDP1 / RFU, LRRCC1 / Fold change vs veh, LRRCC1 / RFU, ARID1A / Fold change vs veh, ARID1A / RFU, ZNF146 / Fold change vs veh, ZNF146 / RFU, ZNF330 / Fold change vs veh, ZNF330 / RFU, GPN3 / Fold change vs veh, GPN3 / RFU, C9orf123 / Fold change vs veh, C9orf123 / RFU, N4BP2L2 / Fold change vs veh, N4BP2L2 / RFU, ARFIP1 / Fold change vs veh, ARFIP1 / RFU, FAM179B / Fold change vs veh, FAM179B / RFU, BCL10 / Fold change vs veh, BCL10 / RFU, UHRF1BP1L / Fold change vs veh, UHRF1BP1L / RFU, BET1 / Fold change vs veh, BET1 / RFU, CNOT2 / Fold change vs veh, CNOT2 / RFU, ZNF268 / Fold change vs veh, ZNF268 / Fold change vs veh, ZNF507 / RFU, DGCR2 / Fold change vs veh, DGCR2 / RFU, WDSUB1 / Fold change vs veh, WDSUB1 / Fold change vs veh, HSP90B1 /// MIR3652 / RFU, ADSS / Fold change vs veh, ADSS / RFU, GK / Fold change vs veh, GK / RFU, ZNF148 / Fold change vs veh, ZNF148 / RFU, TAF9 / Fold change vs veh, TAF9 / RFU, SLC1A5 / Fold change vs veh, SLC1A5 / RFU, SLMO2 / Fold change vs veh, SLMO2 / RFU, ABCC4 / Fold change vs veh, ABCC4 / RFU, LOC101060439 /// RAP1B / Fold change vs veh, LOC101060439 /// RAP1B / RFU, RFX7 / Fold change vs veh, RFX7 / RFU, GTPBP10 / Fold change vs veh, GTPBP10 / RFU, CNEP1R1 / Fold change vs veh, CNEP1R1 / RFU, BIVM-ERCC5 /// ERCC5 / Fold change vs veh, BIVM-ERCC5 /// ERCC5 / RFU, ILF3 / Fold change vs veh, ILF3 / RFU 11762660_at / Fold change /veh 11762660_at / RFU VCAN (11757783_s_at) / Fold change /veh VCAN (11757783_s_at) / RFU DDX43 (11728927_at) / Fold change /veh DDX43 (11728927_at) / RFU KRT8 (11758188_x_at) / Fold change /veh KRT8 (11758188_x_at) / RFU NKD1 (11759106_at) / Fold change /veh NKD1 (11759106_at) / RFU SRD5A1 (11742802_a_at) / Fold change /veh SRD5A1 (11742802_a_at) / RFU TPSAB1 /// TPSB2 (11721975_s_at) / Fold change /veh TPSAB1 /// TPSB2 (11721975_s_at) / RFU GSTM3 (11746129_a_at) / Fold change /veh GSTM3 (11746129_a_at) / RFU IL23R (11737362_x_at) / Fold change /veh IL23R (11737362_x_at) / RFU TMEM51 (11727254_a_at) / Fold change /veh TMEM51 (11727254_a_at) / RFU PIWIL2 (11732686_x_at) / Fold change /veh PIWIL2 (11732686_x_at) / RFU ORM1 (11744905_x_at) / Fold change /veh ORM1 (11744905_x_at) / RFU CCDC152 (11743942_at) / Fold change /veh CCDC152 (11743942_at) / RFU ECM1 (11717891_a_at) / Fold change /veh ECM1 (11717891_a_at) / RFU IL23R (11748794_a_at) / Fold change /veh IL23R (11748794_a_at) / RFU TNFAIP8L3 (11732012_x_at) / Fold change /veh TNFAIP8L3 (11732012_x_at) / RFU MBOAT4 (11741988_at) / Fold change /veh MBOAT4 (11741988_at) / RFU 11764193_at / Fold change /veh 11764193_at / RFU TMEM53 (11763286_at) / Fold change /veh TMEM53 (11763286_at) / RFU MAGEB2 (11727129_at) / Fold change /veh MAGEB2 (11727129_at) / RFU TMEM200A (11744735_a_at) / Fold change /veh TMEM200A (11744735_a_at) / RFU CCDC152 (11751479_a_at) / Fold change /veh CCDC152 (11751479_a_at) / RFU FAM211A (11726209_a_at) / Fold change /veh FAM211A (11726209_a_at) / RFU RGS16 (11746705_a_at) / Fold change /veh RGS16 (11746705_a_at) / RFU VCAN (11755009_s_at) / Fold change /veh VCAN (11755009_s_at) / RFU RHOB (11743442_s_at) / Fold change /veh RHOB (11743442_s_at) / RFU RGS16 (11720943_a_at) / Fold change /veh RGS16 (11720943_a_at) / RFU RGS16 (11720944_at) / Fold change /veh RGS16 (11720944_at) / RFU, VPS4B / Fold change vs veh, VPS4B / RFU, CREB1 / Fold change vs veh, CREB1 / RFU, DNAJC13 / Fold change vs veh, DNAJC13 / RFU, GNAQ / Fold change vs veh, GNAQ / RFU, CDK5R1 / Fold change vs veh, CDK5R1 / RFU, ZRANB3 / Fold change vs veh, ZRANB3 / RFU, CUL4A / Fold change vs veh, CUL4A / RFU, CCNY / Fold change vs veh, CCNY / RFU, UFL1 / Fold change vs veh, UFL1 / RFU, COG3 / Fold change vs veh, COG3 / RFU, DIAPH2 / Fold change vs veh, DIAPH2 / RFU, SKA2 / Fold change vs veh, SKA2 / RFU, AFF3 / Fold change vs veh, AFF3 / RFU, LMF1 / Fold change vs veh, LMF1 / RFU, IPO11 / Fold change vs veh, IPO11 / RFU, DFFB / Fold change vs veh, DFFB / RFU, FOXP1 / Fold change vs veh, FOXP1 / RFU, CARD8 / Fold change vs veh, CARD8 / RFU, STRN3 / Fold change vs veh, STRN3 / RFU, ADK / Fold change vs veh, ADK / RFU, RASSF2 / Fold change vs veh, RASSF2 / RFU, WIPF1 / Fold change vs veh, WIPF1 / RFU, LARP1B / Fold change vs veh, LARP1B / RFU, RASA1 / Fold change vs veh, RASA1 / RFU, RB1 / Fold change vs veh, RB1 / RFU, PPFIA1 / Fold change vs veh, PPFIA1 / RFU, MAT2A / Fold change vs veh, MAT2A / RFU, CCT5 / Fold change vs veh, CCT5 / RFU, WDR92 / Fold change vs veh, WDR92 / RFU, CUX1 / Fold change vs veh, CUX1 / RFU, TTC7A / Fold change vs veh, TTC7A / RFU, TMEM135 / Fold change vs veh, TMEM135 / RFU, DEPTOR / Fold change vs veh, DEPTOR / RFU, CPM / Fold change vs veh, CPM / RFU, DNAJB6 / Fold change vs veh, DNAJB6 / RFU, CACNA2D3 / Fold change vs veh, CACNA2D3 / RFU, DTX4 / Fold change vs veh, DTX4 / RFU, TFCP2 / Fold change vs veh, TFCP2 / RFU, GMCL1 /// GMCL1P1 / Fold change vs veh, GMCL1 /// GMCL1P1 / RFU, AEBP2 / Fold change vs veh, AEBP2 / RFU, SNHG1 /// SNORD22 /// SNORD25 /// SNORD26 /// SNORD27 /// SNORD28 /// SNORD29 /// SNORD31 / Fold change vs veh, SNHG1 /// SNORD22 /// SNORD25 /// SNORD26 /// SNORD27 /// SNORD28 /// SNORD29 /// SNORD31 / Fold change (Aza/veh), C12orf56 (ProbeSet 11735607_a_at) / Fold change (ACY-1035/veh), C12orf56 (ProbeSet 11735607_a_at) / Fold change (Aza/veh), FGFR1OP (ProbeSet 11751329_s_at) / Fold change (ACY-1035/veh), FGFR1OP (ProbeSet 11751329_s_at) / Fold change (Aza/veh), VPS36 (ProbeSet 11739960_a_at) / Fold change (ACY-1035/veh), VPS36 (ProbeSet 11739960_a_at) / RFU SYPL1 (11715823_x_at) / Fold change /veh SYPL1 (11715823_x_at) / RFU IGFBP7 (11715501_s_at) / Fold change /veh IGFBP7 (11715501_s_at) / RFU REEP3 (11722064_at) / Fold change /veh REEP3 (11722064_at) / RFU IGLL1 (11728026_x_at) / Fold change /veh IGLL1 (11728026_x_at): dose or concentration left out as unconfirmed
Settings: ProbeSet 11727958_a_at; LIST B

SMILES: Nc1ccc(-c2cccs2)cc1NC(=O)c1ccc2c(c1)cc(C1CC1)n2CCN1CCOCC1 [ACY-1035]
- Fold change vs veh, ING1: 1.02
